Experimental data: ChEMBL document CHEMBL1177829, “A novel organogermanium protected atopic dermatitis induced by oxazolone” (2010)
Activity calls are given as the source filed them. The calls are words filed in the database; no cut-off is given here.

Legend:
Mus musculus [1] = experiment: Antiinflammatory activity against oxazolone-induced atopic dermatitis in nude mouse assessed as decrease in transepidermal water loss at 0.01 % administered topically bid simultaneously with oxazolone qd for 10 days following 5 days post-oxazolone challenge relative to control; format: functional; set-up: scale not given: the % may be the effect or the level left
Mus musculus [2] = experiment: Antiinflammatory activity against oxazolone-induced atopic dermatitis in nude mouse assessed as decrease in transepidermal water loss at 0.3 % administered topically bid simultaneously with oxazolone qd for 10 days following 5 days post-oxazolone challenge relative to control; format: functional, organism-based; set-up: scale not given: the % may be the effect or the level left
Mus musculus [3] = experiment: Antiinflammatory activity against oxazolone-induced atopic dermatitis in nude mouse assessed as decrease in transepidermal water loss at 1.8 % administered topically bid simultaneously with oxazolone qd for 10 days following 5 days post-oxazolone challenge relative to control; format: functional, organism-based; set-up: scale not given: the % may be the effect or the level left
Mus musculus [4] = experiment: Antiinflammatory activity against oxazolone-induced atopic dermatitis in nude mouse assessed as decrease in skin thickness at 0.3 to 1.8 % administered topically bid simultaneously with oxazolone qd for 10 days following 5 days post-oxazolone challenge relative to control; format: functional, organism-based
Mus musculus [5] = experiment: Antiinflammatory activity against oxazolone-induced atopic dermatitis in nude mouse assessed as decrease in skin thickness at 0.01 % administered topically bid simultaneously with oxazolone qd for 10 days following 5 days post-oxazolone challenge relative to control; format: functional, organism-based
Mus musculus [6] = experiment: Antiinflammatory activity against oxazolone-induced atopic dermatitis in nude mouse assessed as infiltration of lymphocytes in dermis at 1.8 % administered topically bid simultaneously with oxazolone qd for 10 days following 5 days post-oxazolone challenge relative to control; format: functional, organism-based
Mus musculus [7] = experiment: Antiinflammatory activity against oxazolone-induced atopic dermatitis in nude mouse assessed as alleviation of parkeratotic scales at 1.8 % administered topically bid simultaneously with oxazolone qd for 10 days following 5 days post-oxazolone challenge relative to control; format: functional, organism-based
Mus musculus [8] = experiment: Antiinflammatory activity against oxazolone-induced atopic dermatitis in nude mouse assessed as reduction in IgE level at 0.3 to 1.8 % administered topically bid simultaneously with oxazolone qd for 10 days following 5 days post-oxazolone challenge relative to control; format: functional, organism-based

## C[C@H]1C[C@H]2[C@@H]3CCC4=CC(=O)C=C[C@]4(C)[C@@]3(F)[C@@H](O)C[C@]2(C)[C@@]1(O)C(=O)CO [BETAMETHASONE]
Mus musculus [1]
  Activity: 57%

## N-((2S)-2-(3,4-dihydroxy-5-oxo-2,5-dihydrofuran-2-yl)-2-hydroxyethyl)-3-(trimethylgermyl)propanamide
Mus musculus [2]
  Activity: 6%
Mus musculus [3]
  Activity: 39%
Mus musculus [4]
  Activity: Active
Mus musculus [5]
  Activity: Active
Mus musculus [6]
  Activity: Active
Mus musculus [7]
  Activity: Active
Mus musculus [8]
  Activity: Active
